Laboratory results: ChEMBL document CHEMBL1201862, “PubChem BioAssay data set” (2004)
The source made the active and inactive calls.

Assays:
[1] = molecular target: T1, Serine/threonine-protein phosphatase (Homo sapiens, UniProt Q9BPW0); experiment: inhibition of protein phosphatase 5 activity – biochemical, fluorescence, dose response (AID 2395)
T1 sequence (Q9BPW0 whole entry): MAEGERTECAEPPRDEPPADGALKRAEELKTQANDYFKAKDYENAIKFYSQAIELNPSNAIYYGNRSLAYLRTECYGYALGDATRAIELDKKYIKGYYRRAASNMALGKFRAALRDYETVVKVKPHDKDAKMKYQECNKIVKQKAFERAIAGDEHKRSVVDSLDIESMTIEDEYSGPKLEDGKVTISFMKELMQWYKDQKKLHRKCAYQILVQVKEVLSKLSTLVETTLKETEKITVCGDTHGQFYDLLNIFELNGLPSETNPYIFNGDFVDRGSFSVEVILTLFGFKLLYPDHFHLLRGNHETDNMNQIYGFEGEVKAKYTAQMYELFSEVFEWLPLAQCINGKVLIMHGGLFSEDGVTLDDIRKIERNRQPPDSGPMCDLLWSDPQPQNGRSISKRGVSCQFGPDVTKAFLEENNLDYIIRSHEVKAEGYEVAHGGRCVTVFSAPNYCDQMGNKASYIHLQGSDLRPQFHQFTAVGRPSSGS

[2] = molecular target: T2, Apoptotic protease-activating factor 1 (Homo sapiens, UniProt O14727); type: functional
T2 sequence (O14727 whole entry): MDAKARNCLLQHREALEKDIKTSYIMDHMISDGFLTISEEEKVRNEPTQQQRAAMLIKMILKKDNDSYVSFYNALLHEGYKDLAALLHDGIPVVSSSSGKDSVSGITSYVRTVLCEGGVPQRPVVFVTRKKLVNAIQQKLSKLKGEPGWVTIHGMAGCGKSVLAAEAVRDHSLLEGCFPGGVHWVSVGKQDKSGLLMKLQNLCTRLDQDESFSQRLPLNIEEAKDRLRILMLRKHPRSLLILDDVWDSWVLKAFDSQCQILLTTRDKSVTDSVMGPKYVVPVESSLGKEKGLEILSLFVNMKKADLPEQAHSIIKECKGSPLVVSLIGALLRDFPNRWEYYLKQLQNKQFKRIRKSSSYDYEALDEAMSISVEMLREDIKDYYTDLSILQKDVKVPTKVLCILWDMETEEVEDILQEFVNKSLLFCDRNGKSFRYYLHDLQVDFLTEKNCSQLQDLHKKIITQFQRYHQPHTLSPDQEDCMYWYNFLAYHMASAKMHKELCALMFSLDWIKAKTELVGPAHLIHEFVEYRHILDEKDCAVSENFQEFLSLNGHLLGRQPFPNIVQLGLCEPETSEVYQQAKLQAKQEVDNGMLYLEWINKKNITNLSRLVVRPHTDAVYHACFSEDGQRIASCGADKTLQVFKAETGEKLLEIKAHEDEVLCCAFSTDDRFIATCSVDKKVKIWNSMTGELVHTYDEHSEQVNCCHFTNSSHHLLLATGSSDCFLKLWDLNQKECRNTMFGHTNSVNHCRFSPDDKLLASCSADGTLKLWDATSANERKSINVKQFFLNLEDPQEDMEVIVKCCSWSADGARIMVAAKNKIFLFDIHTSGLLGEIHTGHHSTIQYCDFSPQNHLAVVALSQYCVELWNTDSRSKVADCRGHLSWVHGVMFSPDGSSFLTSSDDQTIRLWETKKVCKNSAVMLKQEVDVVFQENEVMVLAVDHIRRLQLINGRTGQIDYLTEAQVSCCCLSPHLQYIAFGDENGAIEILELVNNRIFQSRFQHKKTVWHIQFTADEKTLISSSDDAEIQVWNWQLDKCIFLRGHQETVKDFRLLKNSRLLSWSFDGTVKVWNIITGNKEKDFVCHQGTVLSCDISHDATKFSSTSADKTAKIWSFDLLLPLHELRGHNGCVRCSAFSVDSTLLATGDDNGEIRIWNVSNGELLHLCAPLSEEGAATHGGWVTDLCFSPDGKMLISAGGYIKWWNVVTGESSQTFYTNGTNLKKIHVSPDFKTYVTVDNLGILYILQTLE

[3] = microbe, parasite or virus in culture; type: functional; settings: Mycobacterium tuberculosis
Vero [4] = experiment: viability of Vero cells under compound – cytotoxicity control for flavivirus capping enzyme inhibitors (AID 588742); type: functional; settings: Chlorocebus sabaeus
Escherichia coli = experiment: microbe, parasite or virus in culture
Vero [5] = experiment: cells; type: functional, cell-based; settings: Chlorocebus sabaeus
Jurkat = experiment: SAR Analysis of small molecule inhibitors of T-cell specific antigen receptor-induced NF-kB activation in a Jurkat cell line using a luminescence assay - Set 2. [Related pubchem assays (depositor defined):AID435003, AID435012, AID465]; type: functional, cell-based; settings: Homo sapiens
[6] = molecular target: ATP-dependent molecular chaperone HSP82 (Candida albicans (strain WO-1) (Yeast), UniProt C4YTQ8); experiment: steroid-induced GRE reporter decrease in yeast – S. cerevisiae, luminescence, Hsp90 inhibitor project, dose response (AID 2400); type: functional, cell-based;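 note: beta-galactosidase luminescence from glucocorticoid response element reporter as proxy for Hsp90 function; inhibitor potency where signal loss means Hsp90 inhibition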
HEK293 = experiment: SAR Analysis of small molecule inhibitors of T-cell specific antigen receptor-induced NF-kB activation in a HEK-293T cell line using a luminescence assay - Set 2. [Related pubchem assays (depositor defined):AID435003, AID435012, AID489026]; type: functional, cell-based; settings: Homo sapiens
BJ = experiment: BJ-TERT fibroblast viability loss – cell-based, RAS-independent, luminescence, dose response (AID 1933); type: functional; settings: Homo sapiens
[7] = cytotoxicity toward HT-29 cells – cell-based, CellTiter-Glo luminescence, IC50, dose response (AID 1117330); type: functional
[8] = molecular target: Heat shock 70 kDa protein 1A (Homo sapiens, UniProt P0DMV8); experiment: small molecules displacing fluorescent ligand from Hsp70 – biochemical, fluorescence polarization, primary screen (AID 583)
[9] = rise of 4N DNA cells, HeLa – IC50, dose response (AID 1117351); type: functional, cell-based
Fatty acid synthase = Fatty acid synthase (Homo sapiens, UniProt P49327); experiment: inhibition of human FAS-TE enzyme activity – biochemical, kinetic fluorescence intensity, dose response (AID 624326); type: functional;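 note: rate of fluorescence rise from hydrolysis of a fluorogenic O-methyl fluorescein ester substrate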
[10] = molecular target: T3, Neuropeptide Y receptor type 2 (Homo sapiens, UniProt P49146); experiment: Fluorescence-based cell-based high-throughput dose response assay for agonists of NPY-Y2. [Related pubchem assays: 1703 (Screening assay (CNGC inhibitors).), 1359 (Screening assay (NPY-Y2 potentiators or agonists).), 1304 (Screening assay (NPY-Y1 potentiators or agonists).), 1710 (Screening assay (NPY-Y2 agonists).), 1791 (Summary AID.)]; type: functional
T3 sequence (P49146 whole entry): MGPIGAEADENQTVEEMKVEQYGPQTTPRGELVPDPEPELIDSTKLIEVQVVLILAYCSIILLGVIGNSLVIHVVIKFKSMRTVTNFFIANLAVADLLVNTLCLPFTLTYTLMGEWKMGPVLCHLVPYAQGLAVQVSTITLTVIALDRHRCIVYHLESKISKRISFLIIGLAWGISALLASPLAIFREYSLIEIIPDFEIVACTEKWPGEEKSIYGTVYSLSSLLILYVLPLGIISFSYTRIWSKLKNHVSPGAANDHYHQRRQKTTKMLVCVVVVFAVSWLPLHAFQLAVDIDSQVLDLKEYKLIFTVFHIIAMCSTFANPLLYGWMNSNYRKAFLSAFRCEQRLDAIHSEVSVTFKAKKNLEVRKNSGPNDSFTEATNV

Sequence of Heat shock 70 kDa protein 1A (P0DMV8 whole entry): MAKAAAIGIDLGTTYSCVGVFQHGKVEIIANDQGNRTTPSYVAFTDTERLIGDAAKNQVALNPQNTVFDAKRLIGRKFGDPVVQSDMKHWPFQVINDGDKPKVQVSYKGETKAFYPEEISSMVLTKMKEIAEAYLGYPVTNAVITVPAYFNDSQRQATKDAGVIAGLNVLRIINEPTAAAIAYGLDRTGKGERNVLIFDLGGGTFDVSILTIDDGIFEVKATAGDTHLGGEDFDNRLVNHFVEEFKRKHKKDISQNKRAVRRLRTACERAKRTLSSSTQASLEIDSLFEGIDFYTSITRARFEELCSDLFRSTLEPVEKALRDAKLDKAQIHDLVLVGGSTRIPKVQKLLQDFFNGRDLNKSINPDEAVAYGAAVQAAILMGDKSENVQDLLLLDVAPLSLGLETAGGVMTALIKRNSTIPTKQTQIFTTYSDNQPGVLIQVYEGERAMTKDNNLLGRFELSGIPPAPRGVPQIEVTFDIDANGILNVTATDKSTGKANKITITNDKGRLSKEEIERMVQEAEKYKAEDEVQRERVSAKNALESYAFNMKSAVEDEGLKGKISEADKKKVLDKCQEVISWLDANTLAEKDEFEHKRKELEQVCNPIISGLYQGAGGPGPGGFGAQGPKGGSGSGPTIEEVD
Sequence of ATP-dependent molecular chaperone HSP82 (C4YTQ8 whole entry): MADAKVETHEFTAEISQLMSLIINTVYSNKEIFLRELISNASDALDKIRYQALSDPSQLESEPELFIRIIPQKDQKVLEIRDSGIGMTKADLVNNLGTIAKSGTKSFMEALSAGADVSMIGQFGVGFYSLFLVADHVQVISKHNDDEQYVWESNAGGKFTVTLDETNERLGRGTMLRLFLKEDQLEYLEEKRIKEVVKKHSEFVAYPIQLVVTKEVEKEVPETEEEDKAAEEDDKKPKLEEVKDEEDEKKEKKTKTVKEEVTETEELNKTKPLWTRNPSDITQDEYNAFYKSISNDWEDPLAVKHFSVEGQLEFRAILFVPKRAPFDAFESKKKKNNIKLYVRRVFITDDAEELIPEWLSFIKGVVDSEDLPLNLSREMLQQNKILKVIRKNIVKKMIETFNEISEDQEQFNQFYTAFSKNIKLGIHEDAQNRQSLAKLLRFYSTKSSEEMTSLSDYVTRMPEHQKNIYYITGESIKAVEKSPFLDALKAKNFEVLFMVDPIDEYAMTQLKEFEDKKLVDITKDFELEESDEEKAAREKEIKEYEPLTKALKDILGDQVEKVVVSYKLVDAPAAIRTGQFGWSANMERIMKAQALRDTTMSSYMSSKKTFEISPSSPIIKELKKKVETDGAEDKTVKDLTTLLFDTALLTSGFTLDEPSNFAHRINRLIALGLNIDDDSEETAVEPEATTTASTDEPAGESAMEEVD
Sequence of Fatty acid synthase (P49327 whole entry): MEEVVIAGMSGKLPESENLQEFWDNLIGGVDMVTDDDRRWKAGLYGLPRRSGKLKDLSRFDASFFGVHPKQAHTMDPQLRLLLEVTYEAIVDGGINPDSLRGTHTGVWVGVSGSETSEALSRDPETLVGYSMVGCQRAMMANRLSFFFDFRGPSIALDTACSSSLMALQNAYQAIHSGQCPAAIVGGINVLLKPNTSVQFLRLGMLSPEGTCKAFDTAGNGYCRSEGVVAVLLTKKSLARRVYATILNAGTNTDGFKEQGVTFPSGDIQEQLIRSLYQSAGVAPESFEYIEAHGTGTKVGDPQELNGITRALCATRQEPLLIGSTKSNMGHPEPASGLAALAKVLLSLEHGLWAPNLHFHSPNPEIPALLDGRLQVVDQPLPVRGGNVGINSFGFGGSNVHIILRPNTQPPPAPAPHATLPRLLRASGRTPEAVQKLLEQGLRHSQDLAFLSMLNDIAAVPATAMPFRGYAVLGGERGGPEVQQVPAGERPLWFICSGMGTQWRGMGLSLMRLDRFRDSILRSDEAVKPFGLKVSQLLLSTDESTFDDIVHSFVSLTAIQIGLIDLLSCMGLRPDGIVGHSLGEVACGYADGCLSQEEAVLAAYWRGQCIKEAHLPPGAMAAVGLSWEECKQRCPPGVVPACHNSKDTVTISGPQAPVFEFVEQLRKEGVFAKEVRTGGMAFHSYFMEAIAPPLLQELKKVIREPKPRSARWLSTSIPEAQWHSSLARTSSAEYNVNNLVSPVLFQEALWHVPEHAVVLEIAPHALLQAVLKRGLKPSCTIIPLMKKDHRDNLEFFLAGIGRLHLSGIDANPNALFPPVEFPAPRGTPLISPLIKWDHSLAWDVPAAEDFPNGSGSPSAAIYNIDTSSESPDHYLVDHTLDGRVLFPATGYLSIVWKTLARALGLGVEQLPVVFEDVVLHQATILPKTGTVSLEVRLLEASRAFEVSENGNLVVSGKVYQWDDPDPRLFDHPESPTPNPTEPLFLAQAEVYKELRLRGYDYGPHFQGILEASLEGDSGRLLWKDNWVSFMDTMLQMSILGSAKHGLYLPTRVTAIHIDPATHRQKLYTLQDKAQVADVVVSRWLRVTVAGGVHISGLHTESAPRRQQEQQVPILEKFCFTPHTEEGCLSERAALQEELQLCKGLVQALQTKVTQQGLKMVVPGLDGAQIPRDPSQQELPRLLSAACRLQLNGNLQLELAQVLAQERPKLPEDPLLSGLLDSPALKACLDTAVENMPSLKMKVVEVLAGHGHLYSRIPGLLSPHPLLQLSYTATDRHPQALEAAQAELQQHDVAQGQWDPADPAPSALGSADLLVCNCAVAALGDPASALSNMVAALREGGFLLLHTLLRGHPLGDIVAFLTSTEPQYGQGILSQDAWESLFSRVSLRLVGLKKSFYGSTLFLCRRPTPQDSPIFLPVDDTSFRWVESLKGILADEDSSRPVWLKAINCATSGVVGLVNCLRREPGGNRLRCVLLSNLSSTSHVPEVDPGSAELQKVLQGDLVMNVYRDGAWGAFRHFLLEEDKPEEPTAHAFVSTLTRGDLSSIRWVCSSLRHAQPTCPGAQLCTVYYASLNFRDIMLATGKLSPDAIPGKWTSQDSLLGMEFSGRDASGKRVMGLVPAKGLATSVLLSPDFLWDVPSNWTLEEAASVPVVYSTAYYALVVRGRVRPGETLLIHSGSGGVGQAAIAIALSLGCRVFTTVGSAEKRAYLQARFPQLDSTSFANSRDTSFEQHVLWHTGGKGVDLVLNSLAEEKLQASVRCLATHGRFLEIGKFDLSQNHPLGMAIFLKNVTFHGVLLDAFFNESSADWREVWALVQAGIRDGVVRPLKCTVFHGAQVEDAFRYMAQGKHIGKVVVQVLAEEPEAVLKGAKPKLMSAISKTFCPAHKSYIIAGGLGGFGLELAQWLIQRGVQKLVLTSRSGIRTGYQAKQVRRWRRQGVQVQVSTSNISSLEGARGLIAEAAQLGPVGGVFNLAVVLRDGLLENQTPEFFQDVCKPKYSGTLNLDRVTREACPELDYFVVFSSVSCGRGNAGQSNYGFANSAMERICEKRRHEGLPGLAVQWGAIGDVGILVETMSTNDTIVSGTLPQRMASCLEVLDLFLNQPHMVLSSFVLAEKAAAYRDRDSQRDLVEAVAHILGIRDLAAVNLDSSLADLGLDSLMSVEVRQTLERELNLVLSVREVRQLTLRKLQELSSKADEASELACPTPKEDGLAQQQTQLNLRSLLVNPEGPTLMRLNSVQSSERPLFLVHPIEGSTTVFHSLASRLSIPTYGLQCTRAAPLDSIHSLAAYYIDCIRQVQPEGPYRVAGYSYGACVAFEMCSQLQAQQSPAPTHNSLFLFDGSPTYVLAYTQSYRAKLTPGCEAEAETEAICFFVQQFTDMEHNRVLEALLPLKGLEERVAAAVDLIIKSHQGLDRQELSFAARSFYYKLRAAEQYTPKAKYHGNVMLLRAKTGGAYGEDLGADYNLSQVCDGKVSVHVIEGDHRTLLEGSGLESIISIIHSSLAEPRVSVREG

## N#Cc1c(N2CCCCC2)nc(N)c2c(N)nc(SCC(=O)O)cc12
[1]
  IC50: > 7.45 µM (active)

## CC1(C)Cc2ccccc2C2=NNC(=O)C2=N1
[2]
  IC50: 14 µM (active)
[3]
  CC50: 31.2 µM (active)

## CCc1ccc(S(=O)(=O)Nc2cc(SCC(=O)O)c(O)c3ccccc23)cc1
Vero [4]
  CC50: 33.6 µM (active)

## O=[N+]([O-])c1ccc(Sc2cccc[n+]2[O-])c2nonc12
Escherichia coli
  AC50: 8.5 µM (active)

## CCCC(=O)NC(c1ccc(C(C)C)cc1)c1ccc2cccnc2c1O (stereo not given)
Vero [5]
  IC50: > 25 µM (active)
Jurkat
  IC50: 2.58 µM (active)
[6]
  EC50: > 160 µM (inactive)
HEK293
  IC50: 3.76 µM (active)
BJ
  EC50: 2.3 µM (active)

## Oc1c(Cl)cc(Cl)c(Cl)c1Cc1c(O)c(Cl)cc(Cl)c1Cl [HEXACHLOROPHENE]
[7]
  IC50: 0.46 µM (active)
[8]
  IC50: 19.5 µM (active)
[9]
  IC50: > 10 µM (inactive)
Fatty acid synthase
  IC50: 5.68 µM (active)
[10]
  EC50: > 11.8 µM (not active)
